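Tested at 5 concentrations; 48 h exposure; 96-well plates; endpoints linearly interpolated, else capped at highest concentration. At the TGI there is no net growth.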
Legend:
Assay in all cases: growth of human tumour cells (NCI), 48 h
[1] = tested on: 786-0 renal
[2] = tested on: A498 renal
[3] = tested on: A549 NSCLC
[4] = tested on: ACHN renal
[5] = tested on: BT-549 breast
[6] = tested on: CCRF-CEM leukemia
[7] = tested on: COLO 205 colon
[8] = tested on: DU-145 prostate
[9] = tested on: EKVX NSCLC
[10] = tested on: HCC-2998 colon
[11] = tested on: HCT-116 colon
[12] = tested on: HCT-15 colon
[13] = tested on: HL-60(TB) leukemia
[14] = tested on: HOP-62 NSCLC
[15] = tested on: HOP-92 NSCLC
[16] = tested on: HS 578T breast
[17] = tested on: HT29 colon
[18] = tested on: IGROV1 ovarian
[19] = tested on: K-562 leukemia
[20] = tested on: KM12 colon
[21] = tested on: LOX IMVI melanoma
[22] = tested on: M14 melanoma
[23] = tested on: MALME-3M melanoma
[24] = tested on: MCF7 breast
[25] = tested on: MDA-MB-231 breast
[26] = tested on: MDA-MB-435
[27] = tested on: MDA-N
[28] = tested on: MOLT-4 leukemia
[29] = tested on: NCI-H23 lung
[30] = tested on: NCI-H460 lung
[31] = tested on: NCI-H522 lung
[32] = tested on: NCI/ADR-RES ovarian
[33] = tested on: OVCAR-3 ovarian
[34] = tested on: OVCAR-5 ovarian
[35] = tested on: OVCAR-8 ovarian
[36] = tested on: PC-3 prostate
[37] = tested on: RPMI-8226 leukemia
[38] = tested on: RXF 393 renal
[39] = tested on: SF-268 CNS
[40] = tested on: SF-295 CNS
[41] = tested on: SF-539 CNS
[42] = tested on: SK-MEL-2 melanoma
[43] = tested on: SK-MEL-28 melanoma
[44] = tested on: SK-MEL-5 melanoma
[45] = tested on: SK-OV-3 ovarian
[46] = tested on: SN12C renal
[47] = tested on: SNB-19 CNS
[48] = tested on: SNB-75 CNS
[49] = tested on: SW-620 colon
[50] = tested on: T-47D breast
[51] = tested on: TK-10 renal
[52] = tested on: U251 CNS
[53] = tested on: UACC-257 melanoma
[54] = tested on: UACC-62 melanoma
[55] = tested on: UO-31 renal
[56] = tested on: CAKI-1 renal
[57] = tested on: NCI-H226 lung
[58] = tested on: OVCAR-4 ovarian
[59] = tested on: SR leukemia

N/C(=N\NC(=O)c1nc2ccccc2s1)c1ccccn1
TGI [1]: 22.9 µM
TGI [2]: 36.1 µM
TGI [3]: > 52.7 µM
TGI [4]: 16.5 µM
TGI [5]: > 100 µM
TGI [6]: > 45.6 µM
TGI [7]: 27.6 µM
TGI [8]: > 40.2 µM
TGI [9]: > 63.6 µM
TGI [10]: > 61.5 µM
TGI [11]: 19.6 µM
TGI [12]: 31.9 µM
TGI [13]: 23.4 µM
TGI [14]: > 57.6 µM
TGI [15]: > 100 µM
TGI [16]: > 100 µM
TGI [17]: 50.7 µM
TGI [18]: > 100 µM
TGI [19]: > 77.8 µM
TGI [20]: > 100 µM
TGI [21]: > 100 µM
TGI [22]: 23.6 µM
TGI [23]: > 100 µM
TGI [24]: > 63.7 µM
TGI [25]: > 100 µM
TGI [26]: > 37.6 µM
TGI [27]: > 100 µM
TGI [28]: 18.7 µM
TGI [29]: 52.6 µM
TGI [30]: 17.9 µM
TGI [31]: 44.6 µM
TGI [32]: 15.5 µM
TGI [33]: > 100 µM
TGI [34]: 65.7 µM
TGI [35]: > 47.2 µM
TGI [36]: > 100 µM
TGI [37]: 26.8 µM
TGI [38]: > 69 µM
TGI [39]: > 100 µM
TGI [40]: > 100 µM
TGI [41]: 15.6 µM
TGI [42]: > 100 µM
TGI [43]: > 100 µM
TGI [44]: 21.3 µM
TGI [45]: 29.5 µM
TGI [46]: 18 µM
TGI [47]: > 100 µM
TGI [48]: > 45.1 µM
TGI [49]: > 100 µM
TGI [50]: > 100 µM
TGI [51]: > 100 µM
TGI [52]: > 60.9 µM
TGI [53]: > 79.8 µM
TGI [54]: 19.5 µM
TGI [55]: 15.8 µM

C[C@@H](NC(=O)[C@@H]1C[C@]1(C)CO)c1cccc2ccccc12
TGI [1]: > 100 µM
TGI [2]: > 100 µM
TGI [3]: > 100 µM
TGI [4]: > 100 µM
TGI [5]: > 100 µM
TGI [56]: > 100 µM
TGI [6]: > 100 µM
TGI [7]: > 100 µM
TGI [8]: > 100 µM
TGI [9]: > 100 µM
TGI [10]: > 100 µM
TGI [11]: > 100 µM
TGI [12]: > 100 µM
TGI [14]: > 100 µM
TGI [15]: > 100 µM
TGI [16]: > 100 µM
TGI [17]: > 100 µM
TGI [18]: > 100 µM
TGI [19]: > 100 µM
TGI [20]: > 100 µM
TGI [22]: > 100 µM
TGI [23]: > 100 µM
TGI [24]: > 100 µM
TGI [25]: > 100 µM
TGI [26]: > 100 µM
TGI [27]: > 100 µM
TGI [28]: > 100 µM
TGI [57]: > 100 µM
TGI [29]: > 100 µM
TGI [30]: > 100 µM
TGI [32]: > 100 µM
TGI [33]: > 100 µM
TGI [58]: > 100 µM
TGI [34]: > 100 µM
TGI [35]: > 100 µM
TGI [36]: > 100 µM
TGI [37]: > 100 µM
TGI [38]: > 100 µM
TGI [39]: > 100 µM
TGI [40]: > 100 µM
TGI [42]: > 100 µM
TGI [43]: > 100 µM
TGI [44]: > 100 µM
TGI [45]: > 100 µM
TGI [46]: > 100 µM
TGI [47]: > 100 µM
TGI [48]: > 100 µM
TGI [59]: > 100 µM
TGI [49]: > 100 µM
TGI [50]: > 100 µM
TGI [51]: > 100 µM
TGI [52]: > 100 µM
TGI [53]: > 100 µM
TGI [54]: > 100 µM
TGI [55]: > 100 µM

Reference: PubChem BioAssay (NCI)
